Test in all cases: SRB assay, IMT combined with inhibitor
Common to all, as to type: cell-based

The subject of one assay is A375. The settings on record: A375 (skin); concentration series of the labelled inhibitor + fixed concentration of IMT (3S)-1-[(2R)-2-[4-(2-chloro-4-fluoro-phenyl)-2-oxo-chromen-7-yl]oxypropanoyl]piperidine-3-carboxylic acid (Table 3: 40 nM, 120 h); negative=synergistic, positive=antagonistic. In outline:
(§1)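 Cellular biomass changes were measured by sulforhodamine B staining in medium with 5 mM glucose, at least two independent replicates. Dilution series of MAPK pathway standard-of-care inhibitors were combined with a fixed 40 nM (3S)-1-[(2R)-2-[4-(2-chloro-4-fluoro-phenyl)-2-oxo-chromen-7-yl]oxypropanoyl]piperidine-3-carboxylic acid; growth followed over 120 h versus untreated cells.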

The next assay relates to A673. The settings on record: A673 (muscle); concentration series of the labelled inhibitor + fixed concentration of IMT (3S)-1-[(2R)-2-[4-(2-chloro-4-fluoro-phenyl)-2-oxo-chromen-7-yl]oxypropanoyl]piperidine-3-carboxylic acid (Table 3: 40 nM, 120 h); negative=synergistic, positive=antagonistic. In outline: as §1
For a further assay, the system named is BXPC3. The conditions noted are these: BXPC3 (pancreas); concentration series of the labelled inhibitor + fixed concentration of IMT (3S)-1-[(2R)-2-[4-(2-chloro-4-fluoro-phenyl)-2-oxo-chromen-7-yl]oxypropanoyl]piperidine-3-carboxylic acid (Table 3: 40 nM, 120 h); negative=synergistic, positive=antagonistic. In outline:
as §1

The next assay has as its system CALU6. The settings on record: CALU6 (lung); concentration series of the labelled inhibitor + fixed concentration of IMT (3S)-1-[(2R)-2-[4-(2-chloro-4-fluoro-phenyl)-2-oxo-chromen-7-yl]oxypropanoyl]piperidine-3-carboxylic acid (Table 3: 40 nM, 120 h); negative=synergistic, positive=antagonistic. In outline:
as §1

Another assay has as its system COLO205. The settings on record: COLO205 (colon); concentration series of the labelled inhibitor + fixed concentration of IMT (3S)-1-[(2R)-2-[4-(2-chloro-4-fluoro-phenyl)-2-oxo-chromen-7-yl]oxypropanoyl]piperidine-3-carboxylic acid (Table 3: 40 nM, 120 h); negative=synergistic, positive=antagonistic. In outline: as §1
For another assay, the system named is DU145. The settings on record: DU145 (prostate); concentration series of the labelled inhibitor + fixed concentration of IMT (3S)-1-[(2R)-2-[4-(2-chloro-4-fluoro-phenyl)-2-oxo-chromen-7-yl]oxypropanoyl]piperidine-3-carboxylic acid (Table 3: 40 nM, 120 h); negative=synergistic, positive=antagonistic. In outline: as §1
Another assay concerns GRANTA-519. The settings on record: GRANTA-519 (hematological); concentration series of the labelled inhibitor + fixed concentration of IMT (3S)-1-[(2R)-2-[4-(2-chloro-4-fluoro-phenyl)-2-oxo-chromen-7-yl]oxypropanoyl]piperidine-3-carboxylic acid (Table 3: 40 nM, 120 h); negative=synergistic, positive=antagonistic. In outline:
as §1

The next assay has as its system HCT116. The settings on record: HCT116 (colon); concentration series of the labelled inhibitor + fixed concentration of IMT (3S)-1-[(2R)-2-[4-(2-chloro-4-fluoro-phenyl)-2-oxo-chromen-7-yl]oxypropanoyl]piperidine-3-carboxylic acid (Table 3: 40 nM, 120 h); negative=synergistic, positive=antagonistic. In outline: as §1
Another assay relates to HCT15. The conditions noted are these: HCT15 (colon); concentration series of the labelled inhibitor + fixed concentration of IMT (3S)-1-[(2R)-2-[4-(2-chloro-4-fluoro-phenyl)-2-oxo-chromen-7-yl]oxypropanoyl]piperidine-3-carboxylic acid (Table 3: 40 nM, 120 h); negative=synergistic, positive=antagonistic. In outline: as §1
Another assay relates to HELA. The settings on record: HELA (cervix); concentration series of the labelled inhibitor + fixed concentration of IMT (3S)-1-[(2R)-2-[4-(2-chloro-4-fluoro-phenyl)-2-oxo-chromen-7-yl]oxypropanoyl]piperidine-3-carboxylic acid (Table 3: 40 nM, 120 h); negative=synergistic, positive=antagonistic. In outline: as §1
Another assay relates to HT1080. The conditions noted are these: HT1080 (connective tissue); concentration series of the labelled inhibitor + fixed concentration of IMT (3S)-1-[(2R)-2-[4-(2-chloro-4-fluoro-phenyl)-2-oxo-chromen-7-yl]oxypropanoyl]piperidine-3-carboxylic acid (Table 3: 40 nM, 120 h); negative=synergistic, positive=antagonistic. In outline:
as §1

In the next assay the test system is MHHES1. The conditions noted are these: MHHES1 (bone); concentration series of the labelled inhibitor + fixed concentration of IMT (3S)-1-[(2R)-2-[4-(2-chloro-4-fluoro-phenyl)-2-oxo-chromen-7-yl]oxypropanoyl]piperidine-3-carboxylic acid (Table 3: 40 nM, 120 h); negative=synergistic, positive=antagonistic. In outline: as §1
The test system of a further assay is SKMEL5. The settings on record: SKMEL5 (skin); concentration series of the labelled inhibitor + fixed concentration of IMT (3S)-1-[(2R)-2-[4-(2-chloro-4-fluoro-phenyl)-2-oxo-chromen-7-yl]oxypropanoyl]piperidine-3-carboxylic acid (Table 3: 40 nM, 120 h); negative=synergistic, positive=antagonistic. In outline:
as §1

A further assay relates to U87MG. The conditions noted are these: U87MG (brain); concentration series of the labelled inhibitor + fixed concentration of IMT (3S)-1-[(2R)-2-[4-(2-chloro-4-fluoro-phenyl)-2-oxo-chromen-7-yl]oxypropanoyl]piperidine-3-carboxylic acid (Table 3: 40 nM, 120 h); negative=synergistic, positive=antagonistic. In outline: as §1

Take `CC(=O)Nc1cccc(-n2c(=O)n(C3CC3)c(=O)c3c(Nc4ccc(I)cc4F)n(C)c(=O)c(C)c32)c1` [Trametinib]: the “difference between the calculated combinatorial index (BLISS) and the observed combinatorial effect” value was 0.0510 with A375; 0.0225 in the assay on A673; 0.0889 in the assay on BXPC3; −0.0308 in the assay with CALU6; 0.0319 in the assay with COLO205; 0.0287 in the assay on DU145. Moreover, the “difference between the calculated combinatorial index (BLISS) and the observed combinatorial effect” value is listed as −0.0185 in the assay on GRANTA-519; −0.0027 with HCT116; 0.0677 with HCT15; −0.0064 with HELA; 0.0288 in the assay on HT1080; 0.0760 in the assay on MHHES1. The “difference between the calculated combinatorial index (BLISS) and the observed combinatorial effect” value in the assay on SKMEL5 is 0.0072; in the assay on U87MG, 0.0578.
As to `CC(C)(C)c1nc(-c2cccc(NS(=O)(=O)c3c(F)cccc3F)c2F)c(-c2ccnc(N)n2)s1` [Dabrafenib], the “difference between the calculated combinatorial index (BLISS) and the observed combinatorial effect” value in the assay on A375 was 0.0337; in the assay on A673, −0.0146; in the assay with BXPC3, 0.0251; with CALU6, −0.0342; with COLO205, −0.0114; with DU145, −0.0114. The “difference between the calculated combinatorial index (BLISS) and the observed combinatorial effect” value in the assay with GRANTA-519 was −0.0357; with HCT116 it was 0.0411; in the assay with HCT15, 0.0551; in the assay on HELA, −0.0022; in the assay on HT1080, −0.1475; with MHHES1 it was −0.0230. In addition, the figures for the “difference between the calculated combinatorial index (BLISS) and the observed combinatorial effect” value with SKMEL5 and with U87MG were −0.0987 and 0.0044, respectively.

The values above are taken from patent publication US20240252454A1, “COMPOSITION COMPRISING AN INHIBITOR OF MITOCHONDRIAL TRANSCRIPTION” (LEAD DISCOVERY CENTER GMBH, priority 2021, published 2024).
